Experimental data: ChEMBL document CHEMBL3639140, “Naphthyridine derivatives as inhibitors of hypoxia inducible factor (HIF) hydroxylase” (2014)
pIC50: −log10 of the molar value.

Biological target: Egl nine homolog 1 (Homo sapiens, UniProt Q9GZT9)
Assay: For example, a HIF peptide for use in the HIF-PH assay is [methoxycoumarin]-[…]-amide. HIF-PH, e.g., HIF-PH2 (EGLN1), can be expressed in, e.g., insect Hi5 cells, and partially purified, e.g., through a SP ion exchange chromatography column.
Type: cell-based, BTI-TN-5B1-4

Egl nine homolog 1, sequence (Q9GZT9 whole entry): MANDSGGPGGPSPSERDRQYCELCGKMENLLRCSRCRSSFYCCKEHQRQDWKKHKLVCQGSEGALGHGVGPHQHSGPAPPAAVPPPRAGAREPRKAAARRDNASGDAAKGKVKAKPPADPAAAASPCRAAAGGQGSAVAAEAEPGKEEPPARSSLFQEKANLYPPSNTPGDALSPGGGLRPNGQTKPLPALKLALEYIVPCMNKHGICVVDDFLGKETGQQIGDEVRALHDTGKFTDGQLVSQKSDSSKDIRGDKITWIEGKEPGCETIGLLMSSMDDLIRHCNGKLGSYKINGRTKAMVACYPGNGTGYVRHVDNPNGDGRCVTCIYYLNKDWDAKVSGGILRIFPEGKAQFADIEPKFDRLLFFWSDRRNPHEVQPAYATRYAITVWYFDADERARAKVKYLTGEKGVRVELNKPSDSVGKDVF

O=C(NCc1ccncc1)c1ncc2c(=O)n(Cc3ccccc3)ccc2c1O
pIC50: 6.72
